Like-named read-outs stand apart in the source and are kept apart here.
Legend:
[1] = system: hair growth (skin of shaved rabbits); conditions: repeated injection into skin of shaved rabbits; cited from earlier work
[2] = system: hair growth (clipped patch of skin, upper back of male rats); experiment: Measurement of hair growth using the rat model (cumulative clipped hair weight, topical application); format: in vivo
Method: The effect of compounds on hair growth was assessed using male rats as an animal model as follows. In each of the comparisons reported below, 10 rats were used.
A small patch of normal skin (4cm ×4cm) on the upper back of each rat was clipped at the start of the experiment and a hair growth stimulant composition (or a control) applied twice daily topically to the clipped area. Hair was clipped from the area of the patch twice weekly, collected and weighed at each time point, and cumulative hair weight calculated. […] A positive response, ie. an increase of at least 10% by weight of hair, compared with a control, indicates the potential of the test substance to prevent hair loss and/or reverse baldness in human subjects.
In this example, the effect of topical application of D-glucaro-1,4-lactone, an inhibitor of β-glucuronidaseis shown. The test solution in this experiment contained approximately 7% (w/v) of the glucarolactone in the form of an equilibrium mixture prepared from boiled calcium glucarate. The vehicle was 33% (v/v) ethanol containing 50mM Na citrate at pH 4.2. Test or control solutions (0.3ml) were applied twice-daily to the clipped site; the hair growth results are shown below in Table 2.
This effect is illustrated in Table 3 below, in which the vehicle was 33% v/v ethanol in 50mM sodium citrate, pH4.2:
In a further experiment, glucarolactone was tested in the presence of an activity enhancer, 1-methylpyrrolidone. Again, a significant increase in hair weight was obtained, as shown below in Table 4, in which the vehicle was 33% v/v aqueous ethanol containing 50mM Na citrate buffer pH4.2 and 10% w/v 1-methylpyrrolidone. […]

[3] = target: T1, β-glucuronidase (Homo sapiens, UniProt P08236); conditions: Levvy and Snaith (1972); cited from earlier work
T1 sequence (P08236 23-651): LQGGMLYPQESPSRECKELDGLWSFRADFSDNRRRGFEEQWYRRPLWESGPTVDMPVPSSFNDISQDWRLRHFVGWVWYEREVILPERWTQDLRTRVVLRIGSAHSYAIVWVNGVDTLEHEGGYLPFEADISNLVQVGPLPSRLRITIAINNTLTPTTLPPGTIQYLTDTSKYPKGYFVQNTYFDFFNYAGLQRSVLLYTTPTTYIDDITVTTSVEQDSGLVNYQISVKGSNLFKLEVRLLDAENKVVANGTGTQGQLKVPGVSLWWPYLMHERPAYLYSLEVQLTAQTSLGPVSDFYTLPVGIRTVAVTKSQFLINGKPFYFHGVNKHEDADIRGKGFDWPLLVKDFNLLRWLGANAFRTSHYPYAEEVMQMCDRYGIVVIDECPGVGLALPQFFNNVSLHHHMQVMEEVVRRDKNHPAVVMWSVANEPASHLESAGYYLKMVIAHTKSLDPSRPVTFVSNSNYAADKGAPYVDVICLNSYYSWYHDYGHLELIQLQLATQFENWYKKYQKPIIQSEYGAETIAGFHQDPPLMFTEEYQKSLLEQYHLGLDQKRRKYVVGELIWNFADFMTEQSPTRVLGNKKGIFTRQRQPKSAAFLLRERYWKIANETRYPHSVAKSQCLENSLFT

[4] = target: T1, β-glucuronidase; experiment: Inhibition of β-glucuronidase activity (nitrophenyl glucuronide substrate, method of Dingle); format: biochemical; conditions: for inhibition of γ-glucuronidase activity (so in the source), in words: statement referring to experiments described later
Method: In each of the assays referred to herein, the chemical inhibitor was tested at a pH close to the optimum pH value of the relevant enzyme, and under conditions of saturating substrate concentration, to ensure that Vmax was obtained in the controls. […] The activity of each of these four exoglycosidases was measured using a method described in "Lysosomes, A Laboratory Handbook", edited by […]., Second Edition, (1977) at page 118. […] [Ibid., page 118] as described herein. […] [Ibid., page 118]. The results when the acid or the lactone were incubated with a mixture of this enzyme and the nitrophenyl glucuronide substrate were as follow: […]

[5] = system: α-glucuronidase; conditions: Levvy and Snaith (1972); cited from earlier work
[6] = system: hair growth; conditions: 1% solution, daily application for six months; cited from earlier work
[7] = cited from earlier work
[8] = Table 3, 7% glucarolactone, 0.2% minoxidil, or both, 45 days
[9] = Table 3, 7% glucarolactone, 0.2% minoxidil, or both, vehicle 33% v/v ethanol in 50mM sodium citrate, pH4.2, vehicle control 427.2 ± 58.7
[10] = read-out: percentage inhibition of a 1mM concentration, 1 mM, worked out from 1.03 or 1.14 mM

In the case of dermatan sulphate, the “initiation of the hair growth cycle with stimulation of hair growth, in words” value (shortened to “initiation of the hair growth cycle”) [1] is given as “also active in this respect, but to a lesser extent”.

For chondroitin-6-sulphate, the “initiation of the hair growth cycle” value [1] is given as “also active in this respect, but to a lesser extent”.

In the case of heparan sulphate, the “initiation of the hair growth cycle” value [1] is listed as “particularly active”.

In the case of `O=C(O)[C@@H](O)[C@H]1OC(=O)[C@H](O)[C@H]1O` [glucarolactone, D-glucaro-1,4-lactone], the “stimulation of hair growth (increase)” value ([2]; 7% glucarolactone vs vehicle, Table 2) is reported as 13%, the “increase in hair growth” value ([2]; 7% glucarolactone with 0.1% w/v Triton X-100, 43 days (Table 5)) is reported as 39% and the “increase in hair growth” value ([2]; 7% glucarolactone with 10% w/v 1-methylpyrrolidone, 46 days (Table 4)) is reported as 15%. For the same compound, the “Mean Cumulative hair weight (mg) ± sd, after 45 days” value ([2]; Table 2, approx. 7% (w/v), 0.3 ml twice daily, vehicle 33% (v/v) ethanol, 50mM Na citrate pH 4.2, vehicle control 427.2 ± 58.7) was 482.7 ± 58.4 mg, the “Increase in hair growth (%) (Test vs control)” value [2, 8] was 13% and the “Mean Cumulative hair weight (mg) ± sd, after 45 days” value [2, 9] was 482.7 ± 58.4 mg. The “Mean Cumulative Hair Weight (mg) ± sd, after 46 days” value ([2]; Table 4, 7%, vehicle 33% v/v aqueous ethanol, 50mM Na citrate pH4.2, 10% w/v 1-methylpyrrolidone, vehicle control 611.1 ± 48.1) was 706.2 ± 86.6 mg, the “Mean Cumulative Hair Weight (mg) ± sd, after 43 days” value ([2]; Table 5, 7%, vehicle 20% v/v ethanol, 50mM sodium citrate pH4.2, 0.1% w/v Triton X-100, vehicle control 412.3 ± 57.5) was 573.3 ± 82.5 mg and the “effect on hair growth in combination with a low concentration of minoxidil” value ([2]; result in words) was “synergistic effect on hair growth in combination with a low concentration of minoxidil”. For the same compound, the “effect on onset of anagen / hair cycle” value ([2]; result in words) was “consistently found to advance the onset of anagen, thus reducing the amount of time spent in the resting stage of hair cycle”.

For `O=C[C@H](O)[C@@H](O)[C@H](O)[C@H](O)C(=O)O` [glucuronic acid, D-glucuronic acid], the “inhibition of β-glucuronidase, in words” value [3] is given as “feebly inhibited”, the inhibition at 200 µg/mL ([4]; 0.2 mg/ml (1.03 mM)) is given as 20% and the “enzyme inhibition in words (weak inhibitor)” value (“enzyme inhibition in words” for short) ([4]; 1 mM, β-glucuronidase) is given as “weak enzyme inhibitors”. For the same compound, the inhibition at 1000 µM [4, 10] was 19.4%, the “inhibition of γ-glucuronidase activity (so in the source), in words” value [4] was “weak inhibitors” and the “inhibition of α-glucuronidase, in words” value [5] was “feebly inhibited”. The “regrowth of hair, in words” value [6] was “regrowth of hair”.

With `O=C[C@H](O)[C@H]1OC(=O)[C@@H](O)[C@H]1O` [glucurono-6,3-lactone, D-Glucurono-6,3-lactone] the inhibition at 200 µg/mL ([4]; 0.2 mg/ml (1.14 mM)) was 51%, the “enzyme inhibition in words” value ([4]; 1 mM, β-glucuronidase) was “weak enzyme inhibitors” and the inhibition at 1000 µM [4, 10] was 44.7%. For the same compound, the “inhibition of γ-glucuronidase activity (so in the source), in words” value [4] was “weak inhibitors”.

For `Nc1cc(N2CCCCC2)nc(N)[n+]1[O-]` [minoxidil, reference compound], the “side effects of orally administered minoxidil” value ([7]; oral) is given as “fluid retention, tachycardia, dyspnea, gynecomastia, fatigue, nausea and cardiotoxicity”, the “side effects following topical application” value ([7]; topical) is given as “certain side effects have been experienced following topical application of minoxidil” and the inhibition at 50 µg/mL ([4]; 0.05 mg/ml (0.24 mM)) is given as 2%. The inhibition at 400 µg/mL ([4]; 0.4 mg/ml (1.9 mM)) was 12%, the inhibition at 800 µg/mL ([4]; 0.8 mg/ml (3.8 mM)) was 23% and the “enzyme inhibition in words” value ([4]; 1 mM, β-glucuronidase) was “weak enzyme inhibitor”. For the same compound, the inhibition at 1000 µM ([4]; 1 mM, β-glucuronidase, read-out: enzyme inhibition in words (weak inhibitor)) was 5 to 50%, the inhibition at 1000 µM ([4]; read-out: percent inhibition of a 1mM concentration) was 6% and the “increase in hair growth” value ([2]; 2% (w/v) minoxidil vs vehicle, 45 days) was 55%. The “Mean Cumulative hair weight (mg) ± sd, after 45 days” value ([2]; Table 1, 2% (w/v) topical twice daily, vehicle 70% ethanol, 20% water, 10% propylene glycol, vehicle control 387.3 ± 75.9) was 599.2 ± 85.1 mg, the “Increase in hair growth (%) (Test vs control)” value [2, 8] was 9% and the “Mean Cumulative hair weight (mg) ± sd, after 45 days” value [2, 9] was 465.8 ± 48.8 mg.

In the case of zinc gluconate, the “increase in hair growth” value ([2]; 2% (w/v) zinc gluconate, 45 days (Table 6)) is reported as 16% and the “Mean Cumulative hair weight (mg) ± sd, after 45 days” value ([2]; Table 6, 2% (w/v), vehicle 20% aqueous ethanol, vehicle control 397.8 ± 56.3) is reported as 460.9 ± 45.7 mg.
